# Results reported in patent US20220169632A1, “METHODS AND MATERIALS FOR INCREASING OR MAINTAINING NICOTINAMIDE MONONUCLEOTIDE ADENYLYL TRANSFERASE-2 (NMNAT2) POLYPEPTIDE LEVELS” (University of Pittsburgh - Of the Commonwealth System of …, priority 2019, published 2022).
# Test system: NMNAT2
# Test: NMNAT2-Hibit nano-luciferase activity in stably transfected U87MG cells, various concentrations, 24 hours
# Type: cell-based
# Conditions: U87MG cells stably transfected with NMNAT2-Hibit luc plasmid
# Experimental: Selected compounds were tested in vitro. U87MG cells were stably transfected with NMNAT2-Hibit luc plasmid. Cells were treated with a test compound at various concentrations for 24 hours. Cells were then collected and assayed for nano-luciferase activity.
row,SMILES,E: compound efficacy for NMNAT2 activation (concentration giving >25% increase in NMNAT2 luciferase activity)
1,Cc1ccc(CNC(=O)C2CCc3c(c4ccccc4n3Cc3cccc(F)c3)C2)o1 (stereo not shown) [BC20221],+ (“+” >25% increase in NMNAT2 luciferase activity at >25 μM.)
2,COc1ccccc1CNC(=O)CCCc1cn(Cc2ccccc2C)c2ccccc12 [BC20155],++ (“++” >25% increase in NMNAT2 luciferase activity at >1 μM ≤25 μM.)
3,Cc1cccc(Cn2cc(CCCC(=O)Nc3cccc(C)c3C)c3ccccc32)c1 [BC20175],++ (“++” >25% increase in NMNAT2 luciferase activity at >1 μM ≤25 μM.)
4,Cc1ccc(C)c(Cn2c3c(c4ccccc42)CC(C(=O)NCCc2ccccc2)CC3)c1 (stereo not shown) [BC20218],+ (“+” >25% increase in NMNAT2 luciferase activity at >25 μM.)
5,O=C(NCc1ccco1)N1CCc2c(c3ccccc3n2Cc2ccncc2)C1 [BC20357],++ (“++” >25% increase in NMNAT2 luciferase activity at >1 μM ≤25 μM.)
6,O=C(NCc1cccnc1)C1CCc2c(c3ccccc3n2Cc2cccc(F)c2)C1 (stereo not shown) [BC20258],++ (“++” >25% increase in NMNAT2 luciferase activity at >1 μM ≤25 μM.)
7,O=C(CCCc1cn(Cc2cccc(F)c2)c2ccccc12)NCc1ccncc1 [BC20148],++ (“++” >25% increase in NMNAT2 luciferase activity at >1 μM ≤25 μM.)
8,COc1ccc(CCN2CCc3cn(Cc4cc(C)ccc4C)c4cccc(c34)C2=O)cc1 [BC20272],+ (“+” >25% increase in NMNAT2 luciferase activity at >25 μM.)
9,Cc1ccc(C)c(Cn2cc([C@H]3C[C@@H]3C(=O)NCc3ccc(C)o3)c3ccccc32)c1 (racemic) [BC20345],+ (“+” >25% increase in NMNAT2 luciferase activity at >25 μM.)
10,Cc1c(C)n(Cc2cccc(F)c2)c2ccc(C(=O)N(CCCN3CCOCC3)Cc3ccco3)cc12 [BC20264],++ (“++” >25% increase in NMNAT2 luciferase activity at >1 μM ≤25 μM.)
11,Cc1ccccc1CNC(=O)Cn1c2c(c3ccccc31)CC(C(=O)NCc1ccco1)CC2 (stereo not shown) [BC20287],++ (“++” >25% increase in NMNAT2 luciferase activity at >1 μM ≤25 μM.)
12,CCCCN(CC)Cc1ccc(CNC(=O)CCCc2cn(Cc3ccccc3F)c3ccccc23)o1 [BC20211],+++ (“+++” >25% increase in NMNAT2 luciferase activity at ≤1 μM.)
13,O=C(CCCc1cn(Cc2cccc(F)c2)c2ccccc12)NCCc1ccccc1 [BC20146],++ (“++” >25% increase in NMNAT2 luciferase activity at >1 μM ≤25 μM.)
14,O=C(CCCc1cn(Cc2cccc(F)c2)c2ccccc12)NCC1CCCO1 (stereo not shown) [BC20137],++ (“++” >25% increase in NMNAT2 luciferase activity at >1 μM ≤25 μM.)
15,Cc1ccccc1CNC(=O)Cn1cc2c3c(cccc31)C(=O)N(Cc1cccc(F)c1)CC2 [BC20356],+ (“+” >25% increase in NMNAT2 luciferase activity at >25 μM.)
16,Cc1cccc(Cn2cc(CCCC(=O)N3CCN(C(=O)c4ccco4)CC3)c3ccccc32)c1 [BC20170],++ (“++” >25% increase in NMNAT2 luciferase activity at >1 μM ≤25 μM.)
17,Cc1ccc(C)c(Cn2c(C(F)F)c(CCC(=O)NCc3cccc(F)c3)c3ccccc32)c1 [BC20394],+ (“+” >25% increase in NMNAT2 luciferase activity at >25 μM.)
18,CC(Cc1ccco1)NC(=O)CCCc1cn(Cc2ccccc2F)c2ccccc12 (stereo not shown) [BC20130],++ (“++” >25% increase in NMNAT2 luciferase activity at >1 μM ≤25 μM.)
19,Cc1cccc(NC(=O)c2ccc3c(c2)c(C)c(C)n3Cc2ccccc2F)c1C [BC20246],++ (“++” >25% increase in NMNAT2 luciferase activity at >1 μM ≤25 μM.)
20,Cc1c(C)n(Cc2cccc(F)c2)c2ccc(C(=O)NCC3CCCO3)cc12 (stereo not shown) [BC20110],+++ (“+++” >25% increase in NMNAT2 luciferase activity at ≤1 μM.)
21,O=C(NCc1cccc(F)c1)N1CCc2c(c3ccccc3n2Cc2cccc(F)c2)C1 [BC20309],+ (“+” >25% increase in NMNAT2 luciferase activity at >25 μM.)
22,Cc1ccc(Cn2cc(C3CCN(CCc4cccc(C)c4)C(=O)C3)c3ccccc32)cc1 (stereo not shown) [BC20268],+ (“+” >25% increase in NMNAT2 luciferase activity at >25 μM.)
23,Cc1ccc(C)c(Cn2c(C(F)F)c(CCC(=O)N(CCCN3CCOCC3)Cc3ccco3)c3ccccc32)c1 [BC20399],++ (“++” >25% increase in NMNAT2 luciferase activity at >1 μM ≤25 μM.)

row,SMILES,E: compound efficacy for NMNAT2 activation (concentration giving >25% increase in NMNAT2 luciferase activity)
1,CCOC(=O)Cn1cc(C2CCNC(=O)C2)c2ccccc21 (stereo not shown) [BC20235],++ (“++” >25% increase in NMNAT2 luciferase activity at >1 μM ≤25 μM.)
2,O=C(Cn1c2c(c3ccccc31)CC(C(=O)NCC1CCCO1)CC2)NCc1ccco1 (stereo not shown) [BC20237],++ (“++” >25% increase in NMNAT2 luciferase activity at >1 μM ≤25 μM.)
3,COc1ccccc1CNC(=O)CCc1c(C(F)F)n(Cc2cc(C)ccc2C)c2ccccc12 [BC20397],+ (“+” >25% increase in NMNAT2 luciferase activity at >25 μM.)
4,Cc1ccc(Cn2c3c(c4ccccc42)C(C(=O)NCc2ccccc2F)CCC3)cc1 (stereo not shown) [BC20385],++ (“++” >25% increase in NMNAT2 luciferase activity at >1 μM ≤25 μM.)
5,CC(Cc1ccco1)NC(=O)Cn1cc(C(=O)c2ccc(Cl)cc2)c2ccccc21 (stereo not shown) [BC20214],+ (“+” >25% increase in NMNAT2 luciferase activity at >25 μM.)
6,COc1cccc(CNC(=O)Cn2c3c(c4ccccc42)CC(C(=O)NCc2ccco2)CC3)c1 (stereo not shown) [BC20290],+ (“+” >25% increase in NMNAT2 luciferase activity at >25 μM.)
7,Cc1c(C)n(Cc2ccccc2F)c2ccc(C(=O)NCc3ccco3)cc12 [BC20100],++ (“++” >25% increase in NMNAT2 luciferase activity at >1 μM ≤25 μM.)
8,O=C(CCCc1cn(Cc2cccc(F)c2)c2ccccc12)NCc1cccnc1 [BC20147],++ (“++” >25% increase in NMNAT2 luciferase activity at >1 μM ≤25 μM.)
9,Cc1ccc(Cn2c3c(c4ccccc42)C(C(=O)NCc2cccc(C)c2)CCC3)cc1 (stereo not shown) [BC20386],++ (“++” >25% increase in NMNAT2 luciferase activity at >1 μM ≤25 μM.)
10,Cc1cccc(CNC(=O)Cn2cc(C(=O)c3ccc(Cl)cc3)c3ccccc32)c1 [BC20179],++ (“++” >25% increase in NMNAT2 luciferase activity at >1 μM ≤25 μM.)
11,Cc1c(C)n(Cc2cccc(F)c2)c2ccc(C(=O)NCCc3ccccc3)cc12 [BC20248],++ (“++” >25% increase in NMNAT2 luciferase activity at >1 μM ≤25 μM.)
12,O=C(NCc1ccco1)C1CCc2c(c3ccccc3n2Cc2cccc(F)c2)C1 (stereo not shown) [BC20220],++ (“++” >25% increase in NMNAT2 luciferase activity at >1 μM ≤25 μM.)
13,COc1cccc(CNC(=O)[C@H]2C[C@@H]2c2cn(Cc3ccc(C)cc3)c3ccccc23)c1 (racemic) [BC20299],+ (“+” >25% increase in NMNAT2 luciferase activity at >25 μM.)
14,Cc1c(C)n(Cc2cccc(F)c2)c2ccc(C(=O)NCc3ccncc3)cc12 [BC20119],+++ (“+++” >25% increase in NMNAT2 luciferase activity at ≤1 μM.)
15,Cc1ccccc1CNC(=O)C1CCc2c(c3ccccc3n2CC(=O)NCc2ccco2)C1 (stereo not shown) [BC20238],++ (“++” >25% increase in NMNAT2 luciferase activity at >1 μM ≤25 μM.)
16,O=C(NCc1cccnc1)C1CCCc2c1c1ccccc1n2Cc1cccc(F)c1 (stereo not shown) [BC20379],++ (“++” >25% increase in NMNAT2 luciferase activity at >1 μM ≤25 μM.)
17,COc1ccccc1CNC(=O)[C@H]1C[C@@H]1c1cn(Cc2cc(C)ccc2C)c2ccccc12 (racemic) [BC20349],+ (“+” >25% increase in NMNAT2 luciferase activity at >25 μM.)
18,Cc1ccc(Cn2cc([C@H]3C[C@@H]3C(=O)NCc3ccco3)c3ccccc32)cc1 (racemic) [BC20293],++ (“++” >25% increase in NMNAT2 luciferase activity at >1 μM ≤25 μM.)
19,COCCN(CCNC(=O)[C@H]1C[C@@H]1c1cn(Cc2cc(C)ccc2C)c2ccccc12)Cc1ccco1 (racemic) [BC20365],+ (“+” >25% increase in NMNAT2 luciferase activity at >25 μM.)
20,Cc1ccc(C)c(Cn2c(C(F)F)c(CCC(=O)NCc3ccccc3C)c3ccccc32)c1 [BC20395],++ (“++” >25% increase in NMNAT2 luciferase activity at >1 μM ≤25 μM.)
21,O=C(NCCc1ccccc1)C1CCCc2c1c1ccccc1n2Cc1cccc(F)c1 (stereo not shown) [BC20378],++ (“++” >25% increase in NMNAT2 luciferase activity at >1 μM ≤25 μM.)
22,O=C(CCCc1cn(Cc2cccc(F)c2)c2ccccc12)NCc1ccccc1F [BC20138],++ (“++” >25% increase in NMNAT2 luciferase activity at >1 μM ≤25 μM.)
23,COc1cccc(CNC(=O)CCCc2cn(Cc3cccc(F)c3)c3ccccc23)c1 [BC20143],++ (“++” >25% increase in NMNAT2 luciferase activity at >1 μM ≤25 μM.)
